Reference: paper PMC6804443 (Acta Pharmaceutica Sinica. B, 2019)
Starred links: 1 amine or outer side, 2 acyl side, 3 side chain; linkers in the order of their positions; H or OH if unused. Positions of bridges follow the written chain, without caps; N, C: chain ends. Non-standard residues stand in square brackets, D forms with d. Residues, ends and D or L forms follow the SMILES beside them. *: point of attachment. hTyr(3S-OH,4S-OH,3'-OSO3H) = N[C@H](C(=O)O)[C@H](O)[C@@H](O)c1ccc(O)c(OS(=O)(=O)O)c1; Orn(4R-OH,5R-OH) = O=C([C@H](C[C@@H](O)[C@@H](O)N[*:3])N[*:1])[*:2]; Pro(3S-OH,4S-Me) = C[C@H]1CN[C@H](C(=O)O)[C@H]1O; X1 = CCCCCOc1ccc(-c2cc(-c3ccc(C(=O)*)cc3)no2)cc1; Gln(3R-OH) = NC(=O)C[C@@H](O)[C@H](N)C(=O)O; Hyp = O=C(O)[C@@H]1C[C@@H](O)CN1

Experiments:
OATP1B3 [1] = target: T1, OATP1B3 (Homo sapiens, UniProt Q9NPD5); conditions: IC50, OATP1B3 [X10], mean ± SD (n = 3)
T1 sequence (Q9NPD5 1-702): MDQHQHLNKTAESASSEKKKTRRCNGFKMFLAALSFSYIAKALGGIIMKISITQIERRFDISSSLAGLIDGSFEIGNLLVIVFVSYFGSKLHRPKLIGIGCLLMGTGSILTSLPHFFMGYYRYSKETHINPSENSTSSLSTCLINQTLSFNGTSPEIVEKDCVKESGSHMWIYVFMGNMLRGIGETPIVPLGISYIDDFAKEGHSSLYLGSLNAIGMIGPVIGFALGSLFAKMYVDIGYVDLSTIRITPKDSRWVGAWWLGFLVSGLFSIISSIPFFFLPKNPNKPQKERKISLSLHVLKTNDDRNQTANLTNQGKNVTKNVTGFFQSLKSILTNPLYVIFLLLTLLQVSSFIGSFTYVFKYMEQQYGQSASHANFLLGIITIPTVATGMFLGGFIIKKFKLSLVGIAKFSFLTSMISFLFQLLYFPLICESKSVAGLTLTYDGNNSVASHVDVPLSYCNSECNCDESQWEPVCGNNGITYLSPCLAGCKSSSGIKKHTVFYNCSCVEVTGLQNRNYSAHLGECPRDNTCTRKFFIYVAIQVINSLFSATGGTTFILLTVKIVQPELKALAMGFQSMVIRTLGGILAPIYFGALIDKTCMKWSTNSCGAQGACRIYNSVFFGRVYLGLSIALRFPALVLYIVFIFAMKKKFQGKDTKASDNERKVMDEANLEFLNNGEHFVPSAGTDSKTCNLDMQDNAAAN

OATP1B3 [2] = target: T1, OATP1B3; assay: in vitro
ALDH = type: in vitro ADME; conditions: human, pooled human liver cytosol
UGT2B15 = target: T2, UGT2B15 (Homo sapiens, UniProt P54855); type: in vitro ADME; conditions: for Inhibition DDI index, UGT2B15: antibiotic as perpetrator, senkyunolide I (X5) as victim, (Cmax × fu-p × R)/IC50
T2 sequence (P54855 24-530): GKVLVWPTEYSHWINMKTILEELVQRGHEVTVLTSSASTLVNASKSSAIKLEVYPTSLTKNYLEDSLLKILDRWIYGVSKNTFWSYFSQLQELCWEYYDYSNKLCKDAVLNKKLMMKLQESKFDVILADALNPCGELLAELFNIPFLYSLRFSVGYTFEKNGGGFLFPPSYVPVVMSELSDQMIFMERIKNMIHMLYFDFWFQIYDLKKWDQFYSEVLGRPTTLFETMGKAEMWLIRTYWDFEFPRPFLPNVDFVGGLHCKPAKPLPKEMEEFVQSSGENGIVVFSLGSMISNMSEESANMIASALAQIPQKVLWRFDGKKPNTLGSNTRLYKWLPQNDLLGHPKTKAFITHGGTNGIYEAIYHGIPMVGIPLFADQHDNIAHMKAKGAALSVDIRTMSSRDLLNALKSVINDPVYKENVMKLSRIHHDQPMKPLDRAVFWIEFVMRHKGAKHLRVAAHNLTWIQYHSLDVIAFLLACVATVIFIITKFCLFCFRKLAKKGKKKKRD

OATP1B3 [3] = target: T1, OATP1B3; conditions: antibiotic as perpetrator, salvianolic acid B (X10) as victim; (Cmax × fu-p × R)/IC50
OAT2 = target: T3, OAT2 (Homo sapiens, UniProt Q9Y694); assay: OAT2 inhibition by antibiotics, transfected HEK293 cells, tanshinol as substrate; type: in vitro ADME; conditions: for Inhibition DDI index, OAT2: antibiotic as perpetrator, tanshinol (X8) as victim, (Cmax × fu-p × R)/IC50
T3 sequence (Q9Y694 1-546 isoform Q9Y694-2): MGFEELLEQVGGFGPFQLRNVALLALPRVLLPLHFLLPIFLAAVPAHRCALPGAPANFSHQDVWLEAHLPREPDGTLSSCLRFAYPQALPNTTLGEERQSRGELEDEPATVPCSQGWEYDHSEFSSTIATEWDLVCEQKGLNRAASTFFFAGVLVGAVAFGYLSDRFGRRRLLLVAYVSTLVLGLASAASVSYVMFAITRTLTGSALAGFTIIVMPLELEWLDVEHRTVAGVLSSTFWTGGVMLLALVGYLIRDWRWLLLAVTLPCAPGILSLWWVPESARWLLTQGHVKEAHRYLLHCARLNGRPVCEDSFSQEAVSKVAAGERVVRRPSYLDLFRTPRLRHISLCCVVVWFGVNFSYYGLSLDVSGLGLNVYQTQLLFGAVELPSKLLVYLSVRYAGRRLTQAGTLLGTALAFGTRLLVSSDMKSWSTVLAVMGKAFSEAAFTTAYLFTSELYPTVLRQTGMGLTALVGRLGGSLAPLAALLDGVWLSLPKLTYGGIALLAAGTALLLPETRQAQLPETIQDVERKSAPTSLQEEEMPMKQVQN

OAT1 = target: T4, OAT1 (Homo sapiens, UniProt Q4U2R8); assay: OAT1 inhibition by antibiotics, transfected HEK293 cells, tanshinol as substrate
T4 sequence (Q4U2R8 1-563): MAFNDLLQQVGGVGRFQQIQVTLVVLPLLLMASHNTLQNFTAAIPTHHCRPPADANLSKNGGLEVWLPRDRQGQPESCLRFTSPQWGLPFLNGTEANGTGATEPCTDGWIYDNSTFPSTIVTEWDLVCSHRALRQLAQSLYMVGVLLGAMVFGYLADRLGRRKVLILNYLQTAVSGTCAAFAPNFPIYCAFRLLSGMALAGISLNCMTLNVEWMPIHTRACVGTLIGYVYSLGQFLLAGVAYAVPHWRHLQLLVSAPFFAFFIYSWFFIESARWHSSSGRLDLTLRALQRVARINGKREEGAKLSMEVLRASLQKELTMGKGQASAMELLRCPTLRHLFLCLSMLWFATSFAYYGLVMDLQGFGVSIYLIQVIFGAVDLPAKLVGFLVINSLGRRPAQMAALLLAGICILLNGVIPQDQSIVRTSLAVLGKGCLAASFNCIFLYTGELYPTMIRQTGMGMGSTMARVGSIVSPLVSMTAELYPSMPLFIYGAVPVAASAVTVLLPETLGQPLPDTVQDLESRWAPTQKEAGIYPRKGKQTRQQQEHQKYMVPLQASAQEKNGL

[4] = HEK293, read-out: Inhibition of OAT2

CCC(C)n1ncn(-c2ccc(N3CCN(c4ccc(OCC5COC(Cn6cncn6)(c6ccc(Cl)cc6Cl)O5)cc4)CC3)cc2)c1=O (centres unmarked) [A44, itraconazole]
IC50 (OATP1B3 [1]): 4 ± 1 µM
inhibition at 100 μmol/L (OATP1B3 [2]): 64 to 88%

C[C@@H]1[C@H](O)[C@@H](C)/C=C/C=C/C=C/C=C/C=C/C=C/C=C/[C@H](O[C@@H]2O[C@H](C)[C@@H](O)[C@H](N)[C@@H]2O)C[C@@H]2O[C@](O)(C[C@@H](O)C[C@@H](O)[C@H](O)CC[C@@H](O)C[C@@H](O)CC(=O)O[C@H]1C)C[C@H](O)[C@H]2C(=O)O [A42, amphotericin B]
IC50 (ALDH): 87 ± 9 µM
inhibition at 100 μmol/L (ALDH): 56 to 88%
IC50 (OATP1B3 [1]): 1 µM
inhibition at 100 μmol/L (OATP1B3 [2]): 64 to 88%

CO[C@H]1/C=C/O[C@@]2(C)Oc3c(C)c(O)c4c(O)c(c(/C=N/N5CCN(C)CC5)c(O)c4c3C2=O)NC(=O)/C(C)=C\C=C\[C@H](C)[C@H](O)[C@@H](C)[C@@H](O)[C@@H](C)[C@H](OC(C)=O)[C@@H]1C [A39, rifampin]
IC50 (OATP1B3 [1]): 2 µM
inhibition at 100 μmol/L (OATP1B3 [2]): > 90%

CCN1CCN(C(=O)N[C@@H](C(=O)N[C@@H]2C(=O)N3C(C(=O)O)=C(CSc4nnnn4C)CS[C@H]23)c2ccc(O)cc2)C(=O)C1=O [A8, cefoperazone]
IC50 (UGT2B15): 971 ± 130 µM
Inhibition DDI index, UGT2B15 (UGT2B15): 0.12
inhibition at 1000 μmol/L (UGT2B15; human, cDNA-expressed UGT2B15): 60 to 88%
Inhibition DDI index, OATP1B3 (OATP1B3 [3]): 1.72–4.43
IC50 (OATP1B3 [1]): 27 ± 9 µM
inhibition at 1000 μmol/L (OATP1B3 [2]): 64 to 88%

COc1c(N2C[C@@H]3CCCN[C@@H]3C2)c(F)cc2c(=O)c(C(=O)O)cn(C3CC3)c12 [A33, moxifloxacin]
IC50 (OATP1B3 [1]): 17 ± 2 µM
inhibition at 100 μmol/L (OATP1B3 [2]): 64 to 88%

C[C@H]1COc2c(N3CCN(C)CC3)c(F)cc3c(=O)c(C(=O)O)cn1c23 [A31, levofloxacin]
IC50 (OAT2): 50 ± 9 µM
inhibition at 100 µM (OAT2; [4]): 60 to 84%
Inhibition DDI index, OAT2 (OAT2): 0.36

CC[C@H]1OC(=O)[C@H](C)[C@@H](O[C@H]2C[C@@](C)(OC)[C@@H](O)[C@H](C)O2)[C@H](C)[C@@H](O[C@@H]2O[C@H](C)C[C@H](N(C)C)[C@H]2O)[C@](C)(O)C[C@@H](C)C(=O)[C@H](C)[C@@H](O)[C@]1(C)O [A34, erythromycin]
Inhibition DDI index, OATP1B3 (OATP1B3 [3]): 0.35–1.04
IC50 (OATP1B3 [1]): 3 ± 1 µM
inhibition at 100 μmol/L (OATP1B3 [2]): > 90%

CC1(C)S[C@@H]2[C@H](NC(=O)Cc3ccccc3)C(=O)N2[C@H]1C(=O)O [A15, penicillin G]
IC50 (ALDH): 308 ± 68 µM
IC50 (OATP1B3 [1]): 56 ± 21 µM
inhibition at 5000 μmol/L (OATP1B3 [2]): > 90%

CC(C)(O/N=C(\C(=O)N[C@@H]1C(=O)N2C(C(=O)[O-])=C(C[n+]3ccccc3)CS[C@H]12)c1csc(N)n1)C(=O)O [A7, ceftazidime]
IC50 (ALDH): 1030 ± 155 µM
inhibition at 5000 μmol/L (ALDH): 56 to 88%

C[C@@H](O)[C@H]1C(=O)N2C(C(=O)O)=C(S[C@@H]3CN[C@H](C(=O)N(C)C)C3)[C@H](C)[C@H]12 [A2, meropenem]
IC50 (ALDH): 164 ± 39 µM
inhibition at 1000 μmol/L (ALDH): 56 to 88%

CC1(C)S[C@@H]2[C@H](NC(=O)[C@H](N)c3ccccc3)C(=O)N2[C@H]1C(=O)O [A16, ampicillin]
IC50 (ALDH): 2080 ± 283 µM
inhibition at 5000 μmol/L (ALDH): 56 to 88%
Inhibition DDI index, OATP1B3 (OATP1B3 [3]): 8.55
IC50 (OATP1B3 [1]): 42 ± 18 µM
inhibition at 5000 μmol/L (OATP1B3 [2]): > 90%

CCN1CCN(C(=O)N[C@@H](C(=O)N[C@@H]2C(=O)N3[C@@H]2SC(C)(C)[C@@H]3C(=O)O)c2ccccc2)C(=O)C1=O [A13, piperacillin]
IC50 (OAT1): 591 ± 154 µM
Inhibition DDI index, OAT1 (OAT1; antibiotic as perpetrator, tanshinol (X8) as victim, (Cmax × fu-p × R)/IC50): 0.75
inhibition at 5000 μmol/L (OAT1; human): 63 to 88%
IC50 (UGT2B15): 797 ± 142 µM
Inhibition DDI index, UGT2B15 (UGT2B15): 0.56
inhibition at 5000 μmol/L (UGT2B15; human, cDNA-expressed UGT2B15): 60 to 88%
IC50 (OAT2): 1210 ± 434 µM
inhibition at 5000 µM (OAT2; [4]): 60 to 84%
Inhibition DDI index, OAT2 (OAT2): 0.37

C[C@@H](O)[C@H]1C(=O)N2C(C(=O)O)=C(SCCN=CN)C[C@H]12 [A1, imipenem]
IC50 (ALDH): 120 ± 30 µM
inhibition at 1000 μmol/L (ALDH): 56 to 88%

CO/N=C(\C(=O)N[C@@H]1C(=O)N2C(C(=O)O)=C(CSc3nc(=O)c(=O)[nH]n3C)CS[C@H]12)c1csc(N)n1 [A6, ceftriaxone]
Inhibition DDI index, OATP1B3 (OATP1B3 [3]): 0.68
IC50 (OATP1B3 [1]): 201 ± 48 µM
inhibition at 1000 μmol/L (OATP1B3 [2]): 64 to 88%

CO/N=C(\C(=O)N[C@@H]1C(=O)N2C(C(=O)O)=C(COC(C)=O)CS[C@H]12)c1csc(N)n1 [A9, cefotaxime]
Inhibition DDI index, OATP1B3 (OATP1B3 [3]): 1.81–2.14
IC50 (OATP1B3 [1]): 68 ± 20 µM
inhibition at 1000 μmol/L (OATP1B3 [2]): 64 to 88%

CCCCCOc1ccc(-c2cc(-c3ccc(C(=O)N[C@H]4C[C@@H](O)[C@@H](O)NC(=O)[C@@H]5[C@@H](O)[C@@H](C)CN5C(=O)[C@H]([C@H](O)CC(N)=O)NC(=O)[C@H]([C@H](O)[C@@H](O)c5ccc(O)c(OS(=O)(=O)O)c5)NC(=O)[C@@H]5C[C@@H](O)CN5C(=O)[C@H]([C@@H](C)O)NC4=O)cc3)no2)cc1 [A40, micafungin] (X1-[Orn(4R-OH,5R-OH)]T[Hyp][hTyr(3S-OH,4S-OH,3'-OSO3H)][Gln(3R-OH)][Pro(3S-OH,4S-Me)]; lactam 1-C)
IC50 (OAT1): 43 ± 4 µM
inhibition at 100 μmol/L (OAT1; human): ≥ 90%
IC50 (UGT2B15): 3 µM
inhibition at 100 μmol/L (UGT2B15; human, cDNA-expressed UGT2B15): ≥ 90%
IC50 (OAT2): 26 ± 2 µM
inhibition at 100 µM (OAT2; [4]): > 90%
IC50 (OATP1B3 [1]): 3 ± 1 µM
inhibition at 100 μmol/L (OATP1B3 [2]): > 90%
